According to US12486253B2, “Therapeutics for the degradation of mutant BRAF” (C4 THERAPEUTICS, INC., priority 2021, dated 2025):

Target: BRAF V600E (Homo sapiens, UniProt P15056, V600E)
Assay: HiBiT cellular BRAF^V600E degradation assay
Assay type: cell-based
Details: A375.10 cells, 24 h; for DC50: concentration at which 50% of total cellular BRAF^V600E is degraded; for Emax: residual protein remaining in the cell, read-out: HiBit 24 h Emax

BRAF V600E, sequence (P15056 whole entry V600E): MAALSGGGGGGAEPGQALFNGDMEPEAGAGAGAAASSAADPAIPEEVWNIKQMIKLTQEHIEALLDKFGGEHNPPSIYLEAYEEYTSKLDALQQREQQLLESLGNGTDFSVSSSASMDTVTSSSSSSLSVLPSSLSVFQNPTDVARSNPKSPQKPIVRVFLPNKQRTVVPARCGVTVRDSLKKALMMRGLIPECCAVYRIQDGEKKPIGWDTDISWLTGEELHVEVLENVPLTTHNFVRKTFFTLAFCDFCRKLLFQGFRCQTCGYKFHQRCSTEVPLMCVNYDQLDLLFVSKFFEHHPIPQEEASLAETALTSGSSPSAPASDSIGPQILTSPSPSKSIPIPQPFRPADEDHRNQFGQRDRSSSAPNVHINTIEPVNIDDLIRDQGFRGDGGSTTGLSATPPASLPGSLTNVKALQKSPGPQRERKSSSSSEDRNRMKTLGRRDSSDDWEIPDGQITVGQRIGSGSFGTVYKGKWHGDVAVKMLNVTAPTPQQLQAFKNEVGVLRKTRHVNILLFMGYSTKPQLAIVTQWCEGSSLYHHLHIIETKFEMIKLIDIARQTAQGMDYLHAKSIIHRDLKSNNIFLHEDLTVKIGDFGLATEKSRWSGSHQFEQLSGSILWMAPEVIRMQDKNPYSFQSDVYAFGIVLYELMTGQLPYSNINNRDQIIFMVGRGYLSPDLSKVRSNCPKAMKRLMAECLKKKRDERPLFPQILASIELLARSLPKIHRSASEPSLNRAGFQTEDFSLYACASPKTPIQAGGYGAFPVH

Compound | DC50 [nM] | Emax [%]
N#Cc1c(NS(=O)(=O)N2CCC(F)(F)C2)ccc(F)c1Oc1ccc2ncn(-c3cnc(N4CCN(C(=O)CN5CCC(c6ccc(N[C@@H]7CCC(=O)NC7=O)cc6F)CC5)CC4)nc3)c(=O)c2c1 [Example 123, N-[2-cyano-3-[3-[2-[4-[2-[4-[4-[[(3R)-2,6-dioxopiperidin-3-yl]amino]-2-fluorophenyl]piperidin-1-yl]acetyl]piperazin-1-yl]pyrimidin-5-yl]-4-oxoquinazolin-6-yl]oxy-4-fluorophenyl]-3,3-difluoropyrrolidine-1-sulfonamide] | 50.7 | 14
N#Cc1c(NS(=O)(=O)N2CC[C@@H](F)C2)ccc(F)c1Oc1ccc2ncn(-c3cnc(N4CCN(C(=O)CN5CCC(c6ccc(N[C@@H]7CCC(=O)NC7=O)cc6F)CC5)CC4)nc3)c(=O)c2c1 [Example 124, (3R)—N-[2-cyano-3-[3-[2-[4-[2-[4-[4-[[(3R)-2,6-dioxopiperidin-3-yl]amino]-2-fluorophenyl]piperidin-1-yl]acetyl]piperazin-1-yl]pyrimidin-5-yl]-4-oxoquinazolin-6-yl]oxy-4-fluorophenyl]-3-fluoropyrrolidine-1-sulfonamide] | 15.7 | 12
N#Cc1c(NS(=O)(=O)N2CCC2)ccc(F)c1Oc1ccc2ncn(-c3cnc(N4CCN(C(=O)CN5CCC(c6ccc(N[C@@H]7CCC(=O)NC7=O)cc6F)CC5)CC4)nc3)c(=O)c2c1 [Example 125, N-[2-cyano-3-[3-[2-[4-[2-[4-[4-[[(3R)-2,6-dioxopiperidin-3-yl]amino]-2-fluorophenyl]piperidin-1-yl]acetyl]piperazin-1-yl]pyrimidin-5-yl]-4-oxoquinazolin-6-yl]oxy-4-fluorophenyl]azetidine-1-sulfonamide] | 15.7 | 12.6
CN(C1CC1)S(=O)(=O)Nc1ccc(F)c(Oc2ccc3ncn(-c4cnc(N5CCN(C(=O)CN6CCC(c7ccc(N[C@@H]8CCC(=O)NC8=O)cc7F)CC6)CC5)nc4)c(=O)c3c2)c1C#N [Example 126, 6-[2-cyano-3-[[cyclopropyl(methyl)sulfamoyl]amino]-6-fluorophenoxy]-3-[2-[4-[2-[4-[4-[[(3R)-2,6-dioxopiperidin-3-yl]amino]-2-fluorophenyl]piperidin-1-yl]acetyl]piperazin-1-yl]pyrimidin-5-yl]-4-oxoquinazoline] | 22.2 | 13.7
N#Cc1c(NS(=O)(=O)N2C[C@H]3C[C@H]3C2)ccc(F)c1Oc1ccc2ncn(-c3cnc(N4CCN(C(=O)CN5CCC(c6ccc(N[C@H]7CCC(=O)NC7=O)cc6F)CC5)CC4)nc3)c(=O)c2c1 [Example 128, (1S,5R)—N-[2-cyano-3-[3-[2-[4-[2-[4-[4-[[(3S)-2,6-dioxopiperidin-3-yl]amino]-2-fluorophenyl]piperidin-1-yl]acetyl]piperazin-1-yl]pyrimidin-5-yl]-4-oxoquinazolin-6-yl]oxy-4-fluorophenyl]-3-azabicyclo[3.1.0]hexane-3-sulfonamide] | 19.5 | 9.91
N#Cc1c(NS(=O)(=O)N2C[C@@H](F)[C@H](F)C2)ccc(F)c1Oc1ccc2ncn(-c3cnc(N4CCN(C(=O)CN5CCC(c6ccc(N[C@H]7CCC(=O)NC7=O)cc6F)CC5)CC4)nc3)c(=O)c2c1 [Example 129, (3R,4R)—N-[2-cyano-3-[3-[2-[4-[2-[4-[4-[[(3S)-2,6-dioxopiperidin-3-yl]amino]-2-fluorophenyl]piperidin-1-yl]acetyl]piperazin-1-yl]pyrimidin-5-yl]-4-oxoquinazolin-6-yl]oxy-4-fluorophenyl]-3,4-difluoropyrrolidine-1-sulfonamide] | 29.6 | 10.3
N#Cc1c(NS(=O)(=O)N2CCC2)ccc(F)c1Oc1ccc2ncn(-c3cnc(N4CCN(C(=O)CN5CCC(c6ccc(N[C@H]7CCC(=O)NC7=O)cc6F)CC5)CC4)nc3)c(=O)c2c1 [Example 130, N-[2-cyano-3-[3-[2-[4-[2-[4-[4-[[(3S)-2,6-dioxopiperidin-3-yl]amino]-2-fluorophenyl]piperidin-1-yl]acetyl]piperazin-1-yl]pyrimidin-5-yl]-4-oxoquinazolin-6-yl]oxy-4-fluorophenyl]azetidine-1-sulfonamide] | 16.5 | 7.25
N#Cc1c(NS(=O)(=O)C2CCC2)ccc(F)c1Oc1ccc2ncn(-c3cnc(N4CCN(C(=O)CN5CCC(c6ccc(N[C@H]7CCC(=O)NC7=O)cc6F)CC5)CC4)nc3)c(=O)c2c1 [Example 132, N-[2-cyano-3-[3-[2-[4-[2-[4-[4-[[(3S)-2,6-dioxopiperidin-3-yl]amino]-2-fluorophenyl]piperidin-1-yl]acetyl]piperazin-1-yl]pyrimidin-5-yl]-4-oxoquinazolin-6-yl]oxy-4-fluorophenyl]cyclobutanesulfonamide] | 13.8 | 11.1

More lines, now with the values ahead:

DC50 [nM] | Emax [%] | Compound
13.8 | 11.6 | CN(CCF)S(=O)(=O)Nc1ccc(F)c(Oc2ccc3ncn(-c4cnc(N5CCN(C(=O)CN6CCC(c7ccc(N[C@@H]8CCC(=O)NC8=O)cc7F)CC6)CC5)nc4)c(=O)c3c2)c1C#N [Example 120, 6-[2-cyano-6-fluoro-3-[[2-fluoroethyl(methyl)sulfamoyl]amino]phenoxy]-3-[2-[4-[2-[4-[4-[[(3R)-2,6-dioxopiperidin-3-yl]amino]-2-fluorophenyl]piperidin-1-yl]acetyl]piperazin-1-yl]pyrimidin-5-yl]-4-oxoquinazoline]
14.6 | 7.8 | CN(CCF)S(=O)(=O)Nc1ccc(F)c(Oc2ccc3ncn(-c4cnc(N5CCN(C(=O)CN6CCC(c7ccc(N[C@H]8CCC(=O)NC8=O)cc7F)CC6)CC5)nc4)c(=O)c3c2)c1C#N [Example 121, 6-[2-cyano-6-fluoro-3-[[2-fluoroethyl(methyl)sulfamoyl]amino]phenoxy]-3-[2-[4-[2-[4-[4-[[(3S)-2,6-dioxopiperidin-3-yl]amino]-2-fluorophenyl]piperidin-1-yl]acetyl]piperazin-1-yl]pyrimidin-5-yl]-4-oxoquinazoline]
27.1 | 8.26 | CN(CC(F)F)S(=O)(=O)Nc1ccc(F)c(Oc2ccc3ncn(-c4cnc(N5CCN(C(=O)CN6CCC(c7ccc(N[C@H]8CCC(=O)NC8=O)cc7F)CC6)CC5)nc4)c(=O)c3c2)c1C#N [Example 122, 6-[2-cyano-3-[[2,2-difluoroethyl(methyl)sulfamoyl]amino]-6-fluorophenoxy]-3-[2-[4-[2-[4-[4-[[(3S)-2,6-dioxopiperidin-3-yl]amino]-2-fluorophenyl]piperidin-1-yl]acetyl]piperazin-1-yl]pyrimidin-5-yl]-4-oxoquinazoline]
20.7 | 8.95 | CN(C1CC1)S(=O)(=O)Nc1ccc(F)c(Oc2ccc3ncn(-c4cnc(N5CCN(C(=O)CN6CCC(c7ccc(N[C@H]8CCC(=O)NC8=O)cc7F)CC6)CC5)nc4)c(=O)c3c2)c1C#N [Example 127, 6-[2-cyano-3-[[cyclopropyl(methyl)sulfamoyl]amino]-6-fluorophenoxy]-3-[2-[4-[2-[4-[4-[[(3S)-2,6-dioxopiperidin-3-yl]amino]-2-fluorophenyl]piperidin-1-yl]acetyl]piperazin-1-yl]pyrimidin-5-yl]-4-oxoquinazoline]
